Where two headings read alike, the source gives them in different places. Bridge positions count the residues as written; N and C are the ends. Square brackets hold non-standard residues; d marks the D form. Peptide text beside a SMILES is read from it.

Data on 3 compounds can be found in patent US8906678B2, “Use of markers of undifferentiated pluripotent stem cell” (Agency for Science, Technology and Research, priority 2010, dated 2014).

Format in all cases: cell-based, human
One series concerns HES-3 cells. The conditions noted are these: for killing efficiency on hESC, D-form vs L-form: 100 μm, after 120 hr; for relative viability: 100 μM. On the procedure: Viability was determined using Propidium Iodide (PI) assay, where cells were trypsinized and resuspended in binding buffer (10 mM HEPES/NaOH, 140 mM NaCl and 2.5 mM CaCl2) containing 1.25 mg/ml of PI. The cells were incubated at room temperature for 15 min before analyzing on the flow cytometer.

The test system of series [1] is MAPK pathway (ERK phosphorylation) in HES-3 cultures. Nature of the series: SU5402 inhibitor study, ERK phosphorylation by western blot. The conditions noted are these: 20 μM and 30 μM SU5402 for 2 h, then 10 ng/ml FGF-2 for 15 min. As for the experimental part: hESC cultured under various conditions were lysed and clarified via centrifugation before quantifying with the DC protein assay (Biorad, http://www.bio-rad.com). 20 ug of total protein from each condition was resolved and transferred onto membrane as described above. The resolved proteins were then immunoblotted with anti-actin (1:10,000; Abcam, http://www.abcam.com), anti-total ERK (1:1000; Sigma Aldrich) and anti-phospho-ERK (1:5000; Sigma Aldrich) antibodies. The protein bands were visualized using either ECL Plus detection reagent (Amersham, GE Healthcare, UK, http://www.gehealthcare.com) or LI-COR ODYSSY imaging system (LI-COR Biosciences, Nebraska, http://www.licor.com).
Efficacy of SU5402 (Calbiochem, San Diego, USA, http://www.emdbiosciences.com) was determined by culturing hESC in absence of FGF-2 for 5 days, followed by incubating with 20 μM or 30 μM of SU5402 for 2 h before inducing the treated cultures with FGF-2 for 15 min. Cells were then lysed and the lysates were analyzed using western blot analysis.

Series [2] deals with PHB surface expression in HES-3. Briefly: SU5402 effect on PHB surface expression, flow cytometry, HES-3. The conditions noted are these: 20 μM or 30 μM SU5402 for 7 days. On the procedure: Cells were harvested as single cell suspensions using trypsin, resuspended at 2×10^5 cells per 10 μl volume in 1% bovine serum albumin (BSA)/PBS and incubated for 45 min with each mAb clone (100 ul culture supernatant) or monoclonal TRA-1-60 antibody. (12.5 ug/ml; Chemicon, Temecula, Calif. http://www.chemicon.com). Cells were then washed with cold 1% BSA/PBS, and further incubated for 15 min with 1:500 dilution of fluorescein isothiocyanate (FITC)-conjugated goat α-mouse antibody (DAKO, Glostrup, Denmark, http://www.dako.com). After incubation, the cells were again washed and resuspended in 1% BSA/PBS for analysis on a FACScan (Becton, Dickinson and Company, Franklin Lakes, N.J., http://www.bd.com).
To observe the effect of SU5402 on expression of PHB in hESC, cells were seeded and allowed to adhere for 24 h before culturing them in the presence of SU5402 at concentrations of 20 μM or 30 μM for 7 days. Control cells were cultured similarly in the presence of the vehicle control, DMSO instead. Cells were subsequently harvested for flow cytometry analysis.
On the technique in general: In flow cytometry, cells or beads pass a laser one at a time.

For the next series, the system named is HES-3. Nature of the series: Growth curve of HES-3 cultures (viable cell number vs time). On the procedure: Human embryonic stem cell line, HES-3, was obtained from ES Cell International (ESI, Singapore, http://escellinternational.com). The cells were cultured at 37° C., 5% CO2, on matrigel-coated culture dishes supplemented with conditioned media from immortalized mouse embryonic fibroblast, ΔE-MEF. The media used for culturing hESC was Knockout (KO) media containing 85% KO-DMEM (DMEM, Dulbecco's modified Eagle's medium) supplemented with 15% KO serum replacer, 1 mM L-glutamine, 1% non-essential amino acids, 0.1 mM 2-mercaptoethanol, and 10 ng/ml basic fibroblast growth factor (FGF-2; Invitrogen, Carlsbad, Calif., http://www.invitrogen.com). The cells were treated with collagenase IV (200 U/ml) or TrypLE Express solution (Invitrogen) and dissociated into small clumps or single cells respectively by repeated pipetting. The cells were then reseeded onto matrigel-coated plates at a passage ratio 1:4.
(§1) HES-3 and IMR-90 cells were cultured in 24 wells culture dishes supplemented with either 100 μM PHB-targeting pro-apoptotic peptide (CKGGRAKDC-GG-D(KLAKLAK)2 (SEQ ID NO:3)>90% purity; Sigma Aldrich) or 0.2% DMSO as control. Cultures were induced every 48 h and harvested daily for cell count. Cell numbers were determined using NucleoCounter according to the manufacturer's recommendations (Chemometec, Denmark, http://http://www.chemometec.com). The growth curves were generated by plotting viable cell number vs time. Specific growth rate, μ, was calculated as the gradient of the exponential phase, determined by plotting ln(cell number) vs time. Triplicates were done for each set of data.

A further series concerns IMR-90 cells. Briefly: Growth curve of IMR-90 cells (specificity control). As for the experimental part: Human fetal lung fibroblast cell line, IMR-90 (CCL-186), was purchased from American Type Culture Collection and cultured according to the supplier's instructions.
as §1

In another series the test system is ESIMR90. On the procedure: Induced pluripotent stem cell line, ESIMR90, derived from lung fibroblasts, was obtained from James Thomson (18). ESIMR90 was cultured as per hESC cultures, with the exception of supplementing cultures with 100 ng/ml of FGF-2. For FGF-2 starved cultures, cells were maintained without FGF-2 as mentioned above. Viability was determined using Propidium Iodide (PI) assay, where cells were trypsinized and resuspended in binding buffer (10 mM HEPES/NaOH, 140 mM NaCl and 2.5 mM CaCl2) containing 1.25 mg/ml of PI. The cells were incubated at room temperature for 15 min before analyzing on the flow cytometer.

Series [3] relates to hESC. Nature of the series: Detection of caspase-3 activity / annexin V, hESC. The conditions noted are these: 100 μM peptide, 24 hours. On the procedure:
(§2) To detect caspase-3 activity in treated hESC, cells grown in 24 wells were incubated with 5 μM of NucView 488 Caspase-3 substrate (Biotium Inc, www.biotium.com) and sulforhodamine 101-annexin V (1.25 ug/ml; Biotium Inc) at room temperature for 30 min. Cells were then washed once with PBS and examined under the Olympus IX70 fluorescence microscope (Olympus, http://www.olvmousamerica.com). For flow cytometry analysis, hESC was trypinsized before resuspending cells in PBS containing caspase-3 substrate and annexin V reagents.

Another series relates to ESIMR90 cells. Briefly: Detection of caspase-3 activity / annexin V, ESIMR90. The conditions noted are these: 100 μM peptide, 24 hours. On the procedure:
as §2

Series [4] has as its system hESC. Nature of the series: TUNEL assay (nuclear DNA fragmentation). The conditions noted are these: after 48 hours. As for the experimental part:
Nuclear DNA fragmentation was measured via a TUNEL (Terminal deoxynucleotidyl transferase dUTP nick end labeling) assay kit (Promega, Madison, Wis., http://www.promega.com). Cells were harvested from each condition and fixed in 1% paraformaldehyde for 20 min on ice before permeabilizing them with ice-cold 70% ethanol at […] overnight. Subsequently, the cells were washed with PBS and incubated in 80 μl of equilibration buffer for 5 min at room temperature. The cells were pelleted down and resuspended in 50 μl of incubation buffer containing nucleotides and rTdT enzyme, followed by incubation at 37° C. for 1 h. The reaction was quenched using 20 mM EDTA and cells were resuspended in 0.1% Triton/0.5% BSA/PBS before analyzing on the flow cytometer. The green fluorescence of fluorescein-12-dUTP was detected in the FL1 channel.

[5] abbreviates: 100 μM of peptide, clump cultures.

For the compound `CC(C)C[C@H](NC(=O)[C@H](CCCCN)NC(=O)CNC(=O)CNC(=O)[C@H](CS)NC(=O)[C@H](CC(=O)O)NC(=O)[C@H](CCCCN)NC(=O)[C@H](C)NC(=O)[C@H](CCCNC(=N)N)NC(=O)CNC(=O)CNC(=O)[C@H](CCCCN)NC(=O)[C@@H](N)CS)C(=O)N[C@@H](C)C(=O)N[C@@H](CCCCN)C(=O)N[C@@H](CC(C)C)C(=O)N[C@@H](C)C(=O)N[C@@H](CCCCN)C(=O)N[C@@H](CCCCN)C(=O)N[C@@H](CC(C)C)C(=O)N[C@@H](C)C(=O)N[C@@H](CCCCN)C(=O)N[C@@H](CC(C)C)C(=O)N[C@@H](C)C(=O)N[C@@H](CCCCN)C(=O)O` [L-form peptide] (H-CKGGRAKDCGGKLAKLAKKLAKLAK-OH; N-terminus and C-terminus assumed), the “killing efficiency on hESC, D-form vs L-form” value with HES-3 cells was “comparable”. The hESC viability in the series with HES-3 cells (human, 120 hr) is given as < 5%.
With `Cc1c[nH]c(/C=C2\C(=O)Nc3ccccc32)c1CCC(=O)O` [SU5402], in [1], the ERK phosphorylation entry is recorded as “suppression of ERK phosphorylation”. In addition, the “surface expression of PHB” value in series [2] was “down-regulated surface expression of PHB”.
In the case of `CC(C)C[C@@H](NC(=O)[C@@H](CCCCN)NC(=O)CNC(=O)CNC(=O)[C@@H]1CSSC[C@H](N)C(=O)N[C@@H](CCCCN)C(=O)NCC(=O)NCC(=O)N[C@@H](CCCNC(=N)N)C(=O)N[C@@H](C)C(=O)N[C@@H](CCCCN)C(=O)N[C@@H](CC(=O)O)C(=O)N1)C(=O)N[C@H](C)C(=O)N[C@H](CCCCN)C(=O)N[C@H](CC(C)C)C(=O)N[C@H](C)C(=O)N[C@H](CCCCN)C(=O)N[C@H](CCCCN)C(=O)N[C@H](CC(C)C)C(=O)N[C@H](C)C(=O)N[C@H](CCCCN)C(=O)N[C@H](CC(C)C)C(=O)N[C@H](C)C(=O)N[C@H](CCCCN)C(=O)O` [peptide, CKGGRAKDC-GG-D(KLAKLAK)2] (H-CKGGRAKDCGG[dK][dL][dA][dK][dL][dA][dK][dK][dL][dA][dK][dL][dA][dK]-OH; disulfide 1-9; N-terminus and C-terminus assumed), the “initiation of death phase” value in the series with HES-3 (setting [5]) was found to be 70 h. The same compound displayed a td in the series with HES-3 (setting [5]) of 61.3 h. This compound yielded a specific growth rate with HES-3 (100 μM of peptide, clump cultures, over 7 days) of 0.0113 h⁻¹. Also, the “growth compared to the control” value in the series with HES-3 (peptide supplemented to TrypLE passaged cultures) is recorded as “minimal growth”. The “growth rate μ” value in the series with IMR-90 cells (100 μM of peptide) turned out to be 0.0167 h⁻¹. Also, in the series with IMR-90 cells (IMR-90 cells, which do not express PHB on membrane), the cell killing effect result is recorded as “minimal cell killing effect”. Moreover, in the series with HES-3 cells, the “killing efficiency on hESC, D-form vs L-form” value is “comparable”. Besides, in the series on HES-3 cells (concentrations less than 100 μM), the “toxic effect on hESC” value was “minimal”. Moreover, the “time of incubation to cell death via apoptosis” value with HES-3 cells (hESC) and in the series on ESIMR90 (IPSCs) was ≤ 48 h in each case. The relative viability is listed as 84.7% in the series on HES-3 cells (human, 24 h); 52.2% in the series with HES-3 cells (human, 72 h); 21.7% with HES-3 cells (human, 120 h); 33.4% in the series with ESIMR90 (human, 72 h). Moreover, the viability in the series with HES-3 cells (human, 120 hr, 150 µM) was < 10%; with HES-3 cells (human, 120 hr, 200 µM) it was < 10%. Besides, the “apoptotic killing effect, dose dependence” value in the series with HES-3 cells (titrated over 20 μM to 200 μM) is on record as “concentration-dependent”. The “population exhibiting elevated caspase-3 activity” value in the series with hESC [3] (flow cytometry) was 71.1%; with ESIMR90 cells (flow cytometry), 66.3%. Besides, the “caspase-3 substrate and Annexin V staining” value in the series on hESC [3] (fluorescence microscopy) was “exhibited caspase-3 activity and phosphatidylserine (PS) externalization”; with ESIMR90 cells (fluorescence microscopy) it was “exhibited caspase-3 activity and phosphatidylserine (PS) externalization”. Besides, the “DNA fragmentation compared to the control” value in the series with hESC [4] is on record as “significant increase in DNA fragmentation”.

As usually defined, the viability is a read-out of living cells in per cent, often relative to untreated cells.
